In patent publication US7723068B2, “Gene cluster involved in safracin biosynthesis and its uses for genetic engineering” (PharmaMar, S.A., priority 2002, dated 2010):

Tested on: PROTEIN synthesis
Test: Secondary Screening, Macromolecules Synthesis PROTEIN
Type: cell-based
Conditions: Secondary Evaluation
In the case of `CCOC1=C(C)C(=O)C2=C(C1=O)C(CNC(=O)C(C)N)N1CC3Cc4cc(C)c(OCC)c(O)c4C(C1C2)N3C` (centres unmarked) [Safracin A (OEt)], the IC50 is reported as 6.33 µM.

Tested on: DU-145
Test: cells
Conditions: Homo sapiens, DU-145, read-out: GI50 DU-145
`CCOC1=C(C)C(=O)C2=C(C1=O)C(CNC(=O)C(C)N)N1CC3Cc4cc(C)c(OCC)c(O)c4C(C1C2)N3C` (centres unmarked) [Safracin A (OEt)] showed a GI50 of 2.64 µM.

Same assay, conditions: Homo sapiens, DU-145, read-out: LC50 DU-145
`CCOC1=C(C)C(=O)C2=C(C1=O)C(CNC(=O)C(C)N)N1CC3Cc4cc(C)c(OCC)c(O)c4C(C1C2)N3C` (centres unmarked) [Safracin A (OEt)] gave a CC50 of 11 µM.

Tested on: DU-145
Test: not given
Conditions: Prostate
With `CCOC1=C(C)C(=O)C2=C(C1=O)C(CNC(=O)C(C)N)N1CC3Cc4cc(C)c(OCC)c(O)c4C(C1C2)N3C` (centres unmarked) [Safracin A (OEt)] the “TGI DU-145” value was 5.39 µM.

Tested on: LN-caP
Test: not given
Conditions: Prostate
For `CCOC1=C(C)C(=O)C2=C(C1=O)C(CNC(=O)C(C)N)N1CC3Cc4cc(C)c(OCC)c(O)c4C(C1C2)N3C` (centres unmarked) [Safracin A (OEt)], the “TGI LN-caP” value was 0.742 µM.

Tested on: SK-MEL-28
Test: not given
Conditions: Melanoma
In the case of `CCOC1=C(C)C(=O)C2=C(C1=O)C(CNC(=O)C(C)N)N1CC3Cc4cc(C)c(OCC)c(O)c4C(C1C2)N3C` (centres unmarked) [Safracin A (OEt)], the “TGI SK-MEL-28” value is reported as 1.9 µM.

Tested on: LOVO
Test: not given
Conditions: Colon
For `CCOC1=C(C)C(=O)C2=C(C1=O)C(CNC(=O)C(C)N)N1CC3Cc4cc(C)c(OCC)c(O)c4C(C1C2)N3C` (centres unmarked) [Safracin A (OEt)], the “TGI LOVO” value was 4.41 µM.

Tested on: DNA synthesis
Test: Secondary Screening, Macromolecules Synthesis DNA
Type: cell-based
Conditions: Secondary Evaluation
With `CCOC1=C(C)C(=O)C2=C(C1=O)C(CNC(=O)C(C)N)N1CC3Cc4cc(C)c(OCC)c(O)c4C(C1C2)N3C` (centres unmarked) [Safracin A (OEt)] the IC50 was 1.81 µM.

Tested on: IGROV-ET
Test: not given
Conditions: Ovary
With `CCOC1=C(C)C(=O)C2=C(C1=O)C(CNC(=O)C(C)N)N1CC3Cc4cc(C)c(OCC)c(O)c4C(C1C2)N3C` (centres unmarked) [Safracin A (OEt)] the “TGI IGROV-ET” value was 5.1 µM.

Tested on: LOVO-DOX
Test: not given
Conditions: Colon
For `CCOC1=C(C)C(=O)C2=C(C1=O)C(CNC(=O)C(C)N)N1CC3Cc4cc(C)c(OCC)c(O)c4C(C1C2)N3C` (centres unmarked) [Safracin A (OEt)], the “TGI LOVO-DOX” value was 9.84 µM.

Tested on: HT29
Test: cells
Conditions: Homo sapiens, HT-29, read-out: GI50 HT29
In the case of `CCOC1=C(C)C(=O)C2=C(C1=O)C(CNC(=O)C(C)N)N1CC3Cc4cc(C)c(OCC)c(O)c4C(C1C2)N3C` (centres unmarked) [Safracin A (OEt)], the GI50 is reported as 1.97 µM.

Same assay, conditions: Homo sapiens, HT-29, read-out: LC50 HT29
For `CCOC1=C(C)C(=O)C2=C(C1=O)C(CNC(=O)C(C)N)N1CC3Cc4cc(C)c(OCC)c(O)c4C(C1C2)N3C` (centres unmarked) [Safracin A (OEt)], the CC50 was 9.88 µM.

Tested on: SK-BR3
Test: cells
Conditions: Homo sapiens, SK-BR-3, read-out: GI50 SK-BR3
With `CCOC1=C(C)C(=O)C2=C(C1=O)C(CNC(=O)C(C)N)N1CC3Cc4cc(C)c(OCC)c(O)c4C(C1C2)N3C` (centres unmarked) [Safracin A (OEt)] the GI50 was 0.555 µM.

Same assay, conditions: Homo sapiens, SK-BR-3, read-out: LC50 SK-BR3
Work on `CCOC1=C(C)C(=O)C2=C(C1=O)C(CNC(=O)C(C)N)N1CC3Cc4cc(C)c(OCC)c(O)c4C(C1C2)N3C` (centres unmarked) [Safracin A (OEt)] yielded a CC50 of 5.57 µM.

Tested on: PANC1
Test: cells
Conditions: Homo sapiens, PANC-1, read-out: GI50 PANC1
`CCOC1=C(C)C(=O)C2=C(C1=O)C(CNC(=O)C(C)N)N1CC3Cc4cc(C)c(OCC)c(O)c4C(C1C2)N3C` (centres unmarked) [Safracin A (OEt)] gave a GI50 of 3.06 µM.

Same assay, conditions: Homo sapiens, PANC-1, read-out: LC50 PANC1
`CCOC1=C(C)C(=O)C2=C(C1=O)C(CNC(=O)C(C)N)N1CC3Cc4cc(C)c(OCC)c(O)c4C(C1C2)N3C` (centres unmarked) [Safracin A (OEt)] gave a CC50 of 11.1 µM.

Tested on: HELA
Test: cells
Conditions: Homo sapiens, read-out: GI50 HELA
`CCOC1=C(C)C(=O)C2=C(C1=O)C(CNC(=O)C(C)N)N1CC3Cc4cc(C)c(OCC)c(O)c4C(C1C2)N3C` (centres unmarked) [Safracin A (OEt)] showed a GI50 of 1.02 µM.

Same assay, conditions: Homo sapiens, read-out: LC50 HELA
Work on `CCOC1=C(C)C(=O)C2=C(C1=O)C(CNC(=O)C(C)N)N1CC3Cc4cc(C)c(OCC)c(O)c4C(C1C2)N3C` (centres unmarked) [Safracin A (OEt)] yielded a CC50 of 7.85 µM.

Tested on: IGROV-ET
Test: cells
Conditions: read-out: GI50 IGROV-ET
Compound `CCOC1=C(C)C(=O)C2=C(C1=O)C(CNC(=O)C(C)N)N1CC3Cc4cc(C)c(OCC)c(O)c4C(C1C2)N3C` (centres unmarked) [Safracin A (OEt)] has a GI50 of 2.01 µM.

Same assay, conditions: read-out: LC50 IGROV-ET
For `CCOC1=C(C)C(=O)C2=C(C1=O)C(CNC(=O)C(C)N)N1CC3Cc4cc(C)c(OCC)c(O)c4C(C1C2)N3C` (centres unmarked) [Safracin A (OEt)], the CC50 was 13 µM.

Tested on: not listed separately
Test: Antibacterial and antitumoral activities, general statements
Conditions: compared with safracin A / safracin B
For `CCOC1=C(C)C(=O)C2=C(C1=O)C(CNC(=O)C(C)N)N1CC3Cc4cc(C)c(OCC)c(O)c4C(C1C2)N3C` (centres unmarked) [Safracin A (OEt)], the “antibacterial and antitumoral activities (in words)” value was “as potent as the activities of safracin A and safracin B, respectively”.

Tested on: SK-MEL-28
Test: cells
Conditions: Homo sapiens, SK-MEL-28, read-out: GI50 SK-MEL-28
Work on `CCOC1=C(C)C(=O)C2=C(C1=O)C(CNC(=O)C(C)N)N1CC3Cc4cc(C)c(OCC)c(O)c4C(C1C2)N3C` (centres unmarked) [Safracin A (OEt)] yielded a GI50 of 0.796 µM.

Same assay, conditions: Homo sapiens, SK-MEL-28, read-out: LC50 SK-MEL-28
In the case of `CCOC1=C(C)C(=O)C2=C(C1=O)C(CNC(=O)C(C)N)N1CC3Cc4cc(C)c(OCC)c(O)c4C(C1C2)N3C` (centres unmarked) [Safracin A (OEt)], the CC50 is reported as 5.77 µM.
